Measured values reported in ChEMBL document CHEMBL3396986, “Novel β-amyloid aggregation inhibitors possessing a turn mimic” (Bioorg Med Chem Lett, 2015).
The source made the active and inactive calls. The calls are words filed in the database; no cut-off is given here. *1 amine or outer side, *2 acyl side, *3 side chain or, on linkers, in order; H or OH if unused. Where a SMILES comes first, the peptide text is derived from it. [ ]: non-standard residue; d: D form. X1 = O=C(CCc1cccc2c1oc1c(CCN[*:1])cccc12)[*:2]; PEG8 = NCCOCCOCCOCCOCCOCCOCCOCCOCCC(=O)O; Met(O) = CS(=O)CC[C@H](N)C(=O)O

How the values were obtained:
[1] = biological target: Amyloid-beta precursor protein (Homo sapiens) (UniProt P05067); assay: Inhibition of authentic Amyloid beta (1 to 42) (unknown origin) aggregation 6 to 48 hrs by Thioflavin-T fluorescence assay
Sequence of Amyloid-beta precursor protein (Homo sapiens) (P05067 whole entry): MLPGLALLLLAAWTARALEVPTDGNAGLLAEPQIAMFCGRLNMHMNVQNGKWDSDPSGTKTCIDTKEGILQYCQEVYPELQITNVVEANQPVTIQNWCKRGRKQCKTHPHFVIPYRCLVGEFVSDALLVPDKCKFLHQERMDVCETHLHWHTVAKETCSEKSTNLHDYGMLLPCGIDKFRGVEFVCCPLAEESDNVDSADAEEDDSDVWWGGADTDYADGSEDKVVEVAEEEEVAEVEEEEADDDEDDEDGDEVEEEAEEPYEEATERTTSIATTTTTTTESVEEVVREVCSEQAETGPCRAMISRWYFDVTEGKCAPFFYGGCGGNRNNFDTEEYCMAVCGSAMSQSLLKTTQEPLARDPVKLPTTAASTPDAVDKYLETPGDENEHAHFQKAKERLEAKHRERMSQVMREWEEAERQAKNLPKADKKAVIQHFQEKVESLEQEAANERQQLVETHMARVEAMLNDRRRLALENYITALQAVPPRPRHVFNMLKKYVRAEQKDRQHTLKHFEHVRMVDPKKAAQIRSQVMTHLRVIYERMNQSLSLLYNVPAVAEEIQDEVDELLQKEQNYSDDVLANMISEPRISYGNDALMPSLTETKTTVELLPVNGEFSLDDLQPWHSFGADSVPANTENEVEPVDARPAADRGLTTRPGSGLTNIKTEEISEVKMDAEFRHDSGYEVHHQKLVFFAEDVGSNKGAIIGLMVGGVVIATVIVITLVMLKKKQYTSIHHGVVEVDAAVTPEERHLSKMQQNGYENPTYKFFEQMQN

[2] = biological target: Amyloid-beta precursor protein (Homo sapiens) (UniProt P05067); assay: Inhibition of pH-click Amyloid beta (1 to 42) (unknown origin) aggregation 6 to 48 hrs by Thioflavin-T fluorescence assay
[3] = biological target: Amyloid-beta precursor protein (Homo sapiens) (UniProt P05067); assay: Inhibition of pH-click Amyloid beta (1 to 42) (unknown origin) aggregation after 24 hrs by Thioflavin-T fluorescence assay; set-up: concentration or dose not given beside the values; conditions: concentration not given here
[4] = biological target: Amyloid-beta precursor protein (Homo sapiens) (UniProt P05067); assay: Inhibition of pH-click Amyloid beta (1 to 42) (unknown origin) aggregation after 48 hrs by Thioflavin-T fluorescence assay; set-up: concentration or dose not given beside the values; conditions: concentration not given here

Row | inhibition [1] | inhibition [2] | inhibition [3] | inhibition [4] | Molecule
1 | Active | Active |  |  | CC(C)C[C@@H](NC(=O)[C@H](N)CCCCN)C(=O)N[C@@H](C(=O)N[C@H](Cc1ccccc1)C(=O)N[C@H](Cc1ccccc1)C(=O)N[C@H](C)C(=O)O)C(C)C (H-[dK][dL][dV][dF][dF][dA]-OH)
2 |  |  | 7% | < 5% | CC(C)C[C@H](NC(=O)CNC(=O)CCc1cccc2c1oc1c(CCNC(=O)CNC(=O)[C@H](CCCCN)NC(=O)[C@H](CC(N)=O)NC(=O)[C@@H](N)CO)cccc12)C(=O)N[C@@H](CC[S+](C)[O-])C(=O)N[C@H](C(=O)NCCOCCOCCOCCOCCOCCOCCOCCOCCC(=O)O)C(C)C (some centres undefined) (H-SNKG[X1]GL[Met(O)]V[PEG8]-OH)
3 |  |  | 16% | 20% | CC[C@H](C)[C@H](NC(=O)[C@H](C)NC(=O)CNC(=O)CCc1cccc2c1oc1c(CCNC(=O)CNC(=O)[C@@H](NC(=O)[C@H](CC(=O)O)NC(=O)[C@@H](N)CCC(=O)O)C(C)C)cccc12)C(=O)N[C@H](C(=O)NCCOCCOCCOCCOCCOCCOCCOCCOCCC(=O)O)[C@@H](C)CC (H-EDVG[X1]GAII[PEG8]-OH)
4 |  |  | 10% | < 5% | CC[C@H](C)[C@H](NC(=O)[C@H](C)NC(=O)CCc1cccc2c1oc1c(CCNC(=O)[C@H](CO)NC(=O)CNC(=O)[C@@H](NC(=O)[C@H](CC(=O)O)NC(=O)CCOCCOCCOCCOCCOCCOCCOCCOCCN)C(C)C)cccc12)C(=O)N[C@H](C(=O)NCC(=O)O)[C@@H](C)CC (H-[PEG8]DVGS[X1]AIIG-OH)
5 | Active | Active |  |  | H-KLVFFA-OH
6 |  |  | 13% | < 5% | CC(C)C[C@H](NC(=O)CNC(=O)CCc1cccc2c1oc1c(CCNC(=O)CNC(=O)[C@H](CCCCN)NC(=O)[C@H](CC(N)=O)NC(=O)[C@H](CO)NC(=O)CCOCCOCCOCCOCCOCCOCCOCCOCCN)cccc12)C(=O)N[C@@H](CC[S+](C)[O-])C(=O)N[C@H](C(=O)O)C(C)C (some centres undefined) (H-[PEG8]SNKG[X1]GL[Met(O)]V-OH)
7 |  |  | 49% | 39% | CC[C@H](C)[C@H](NC(=O)CCc1cccc2c1oc1c(CCNC(=O)[C@H](CC(N)=O)NC(=O)[C@H](CO)NC(=O)CNC(=O)[C@@H](N)C(C)C)cccc12)C(=O)N[C@H](C(=O)NCC(=O)N[C@@H](CC(C)C)C(=O)NCCOCCOCCOCCOCCOCCOCCOCCOCCC(=O)O)[C@@H](C)CC (H-VGSN[X1]IIGL[PEG8]-OH)
8 |  |  | 13% | < 5% | CC[C@H](C)[C@H](NC(=O)[C@@H](NC(=O)[C@H](C)NC(=O)CNC(=O)CCc1cccc2c1oc1c(CCNC(=O)CNC(=O)[C@@H](NC(=O)[C@H](CC(=O)O)NC(=O)[C@H](CCC(=O)O)NC(=O)CCOCCOCCOCCOCCOCCOCCOCCOCCN)C(C)C)cccc12)[C@@H](C)CC)C(=O)O (H-[PEG8]EDVG[X1]GAII-OH)
9 |  |  | 12% | < 5% | CC[C@H](C)[C@H](NC(=O)CCc1cccc2c1oc1c(CCNC(=O)[C@H](CCCCN)NC(=O)[C@H](CC(N)=O)NC(=O)[C@H](CO)NC(=O)CN)cccc12)C(=O)NCC(=O)N[C@@H](CC(C)C)C(=O)N[C@@H](CC[S+](C)[O-])C(=O)NCCOCCOCCOCCOCCOCCOCCOCCOCCC(=O)O (some centres undefined) (H-GSNK[X1]IGL[Met(O)][PEG8]-OH)
10 |  |  | < 5% | < 5% | CC[C@H](C)[C@H](NC(=O)[C@H](C)NC(=O)CCc1cccc2c1oc1c(CCNC(=O)[C@H](CO)NC(=O)CNC(=O)[C@@H](NC(=O)[C@@H](N)CC(=O)O)C(C)C)cccc12)C(=O)N[C@H](C(=O)NCC(=O)NCCOCCOCCOCCOCCOCCOCCOCCOCCC(=O)O)[C@@H](C)CC (H-DVGS[X1]AIIG[PEG8]-OH)
11 |  |  | 9% | < 5% | CC[C@H](C)[C@H](NC(=O)CCc1cccc2c1oc1c(CCNC(=O)[C@H](CCCCN)NC(=O)[C@H](CC(N)=O)NC(=O)[C@H](CO)NC(=O)CNC(=O)CCOCCOCCOCCOCCOCCOCCOCCOCCN)cccc12)C(=O)NCC(=O)N[C@@H](CC(C)C)C(=O)N[C@@H](CC[S+](C)[O-])C(=O)O (some centres undefined) (H-[PEG8]GSNK[X1]IGL[Met(O)]-OH)
12 |  |  | 56% | 56% | CC[C@H](C)[C@H](NC(=O)CCc1cccc2c1oc1c(CCNC(=O)[C@H](CC(N)=O)NC(=O)[C@H](CO)NC(=O)CNC(=O)[C@@H](NC(=O)CCOCCOCCOCCOCCOCCOCCOCCOCCN)C(C)C)cccc12)C(=O)N[C@H](C(=O)NCC(=O)N[C@@H](CC(C)C)C(=O)O)[C@@H](C)CC (H-[PEG8]VGSN[X1]IIGL-OH)
